Values of other authors in patent US12697315B2, “Treatment for interstitial lung disease” (United Therapeutics Corporation, priority 2020, dated 2026).
Read-outs that look alike come from different tables or passages of the source.

Tested on: IPF
Settings: 52 weeks, cited from earlier work

Compound	FVC, placebo corrected, rate of decline (pirfenidone)	FVC % predicted, placebo corrected, rate of decline	FVC, placebo corrected, rate of decline
Cc1ccc(=O)n(-c2ccccc2)c1 [Pirfenidone, pirfenidone]	153 to 193 mL		
COC(=O)c1ccc2c(c1)NC(=O)/C2=C(\Nc1ccc(N(C)C(=O)CN2CCN(C)CC2)cc1)c1ccccc1 [Nintedanib, nintedanib]		3.2 % predicted	~ 109 mL
